From patent US20160362416A1, “ANTIVIRAL COMPOUNDS” (Gilead Sciences, Inc., priority 2012, published 2016) come the findings set out here.

For assay [1], the system named is NS5A chimeric genotype 1b Con1 replicon with genotype 4a ED43 strain NS5A gene. Briefly: HCV genotype 4a NS5A chimeric replicon assay. The conditions noted are these: Hepatitis C virus, 72 h, read-out: 4a (s) (nM). The assay is classed as cell-based. (Replicon systems follow genome replication, usually without infectious particles.)
Assay [2] deals with NS5A chimeric genotype 1b Con1 replicon with genotype 3a S52 strain NS5A gene. Briefly: HCV genotype 3a NS5A chimeric replicon assay. The assay is classed as cell-based. The conditions noted are these: Hepatitis C virus, 72 h, read-out: 3a (nM). The essentials: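 EC50 derived by non-linear regression of Renilla luciferase signal measured in lysates 72 h after adding 3-fold serial compound dilutions. Replicons: stable genotype 1b Con1 cells; transient Huh-Lunet transfections of NS5A chimeras—4a ED43 or 3a S52 in Con1, 2b MD2b-1 (M31) in JFH-1.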

The subject of assay [3] is Y93H in genotype 3a NS5A replicon. As to the kind of experiment: Resistance mutant replicon assay, genotype 3a NS5A Y93H. The assay is classed as cell-based, HCV. The conditions noted are these: Hepatitis C virus, read-out: 3a Y93H (nM). The method, boiled down:
(§1)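 Renilla luciferase signal after 72 h compound exposure gave EC50 via non-linear regression. Cells were Huh-7-derived cured-51 transiently transfected with replicon RNA carrying the NS5A mutation introduced by site-directed mutagenesis into 1a or 1b Pi-RLuc replicons.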

Assay [4] deals with Y93N in genotype 1a NS5A replicon. Briefly: Resistance mutant replicon assay, genotype 1a NS5A Y93N. The format is cell-based, HCV. The note with it: Hepatitis C virus, read-out: 1a Y93N (nM). The essentials: as §1
Assay [5] has as its system Q30R in genotype 1a NS5A replicon. Briefly: Resistance mutant replicon assay, genotype 1a NS5A Q30R. The format is cell-based, HCV. The conditions noted are these: Hepatitis C virus, read-out: 1a Q30R (nM). How it is done: Evaluation of cell-based anti-HCV activity: Antiviral potency (EC50) was determined using a Renilla luciferase (RLuc)-based HCV replicon reporter assay. To perform the assay for genotype 1 and 2a JFH-1, stable HCV 1a RLuc replicon cells (harboring a dicistronic genotype 1a H77 replicon that encodes a RLuc reporter), stable HCV lb RLuc replicon cells (harboring a dicistronic genotype 1b Conl replicon that encodes a RLuc reporter), or stable HCV 2a JFH-1 Rluc replicon cells (harboring a dicistronic genotype 2a JFH-1 replicon that encodes a RLuc reporter; with L31 present in NS5A) were dispensed into 384-well plates for EC50 assays. To perform the assay for genotype 2a (with M31 present in NS5A) or 2b, NS5A chimeric genotype 2a JFH-1 replicons that encodes a RLuc-Neo reporter and either genotype 2a J6 strain NS5A gene or genotype 2b MD2b-1 strain NS5A gene (both with M31 present) respectively, were either transiently transfected (t) into Huh-Lunet cells or were established as stably replicating replicon cells (s) is provided. Either cells were dispensed into 384-well plates for EC50 assays. To perform the assay for genotype 3 and 4, NS5A chimeric genotype 1b Conl replicons that encodes a Pi-RLuc reporter and either genotype 3a S52 strain NS5A gene or genotype 4a ED43 strain NS5A gene respectively, were transiently transfected (t) into Huh-Lunet cells, which were subsequently dispensed into 384-well plates. Compounds were dissolved in DMSO at a concentration of 10 mM and diluted in DMSO either manually or using an automated pipeting instrument. Serially 3-fold diluted compounds were either manually mixed with cell culture media and added to the seeded cells or directly added to the cells using an automated instrument. DMSO was used as a negative (solvent; no inhibition) control, and the protease inhibitor ITMN-191 was included at a concentration >100×EC50 as a positive control. 72 hours later, cells were lysed and Renilla luciferase activity quantified as recommended by the manufacturer (Promega-Madison, Wis.). Non-linear regression was performed to calculate EC50 values.
To determine the antiviral potency (EC50) against resistance mutants, resistance mutations, including M28T, Q30R, Q30H, Q30E, L31M, Y93C, Y93H, and Y93N in genotype 1a NS5A, Y93H and L31V/Y93H in genotype 1b NS5A, and Y93H for in genotype 3a NS5A, were introduced individually into either 1a Pi-Rluc or 1b Pi-Rluc replicons by site directed mutagenesis. Replicon RNA of each resistant mutant was transiently transfected into Huh-7-derived cured-51 cells and antiviral potency was determined on these transfected cells as described above.

Assay [6] deals with NS5A chimeric genotype 2a JFH-1 replicon with genotype 2b MD2b-1 strain NS5A gene (M31). As to the kind of experiment: HCV genotype 2b NS5A chimeric replicon assay, stable (s). The assay is classed as cell-based. The note with it: Hepatitis C virus, 72 h, read-out: 2b (s) (nM).
Assay [7] relates to NS5A chimeric genotype 2a JFH-1 replicon with genotype 2a J6 strain NS5A gene (M31). Briefly: HCV genotype 2a J6 NS5A chimeric replicon assay, transient (t). The note with it: Hepatitis C virus, 72 h, read-out: 2a J6 (t) (nM). The format is cell-based.

Turning to `CC[C@H](C)[C@H](NC(=O)OC)C(=O)N1[C@@H](C)CC[C@H]1c1nc2ccc3cc4c(cc3c2[nH]1)OCc1cc(-c2cnc([C@@H]3CC[C@H](C)N3C(=O)[C@@H](NC(=O)OC)C3CCOCC3)[nH]2)ccc1-4` [Comp 12, reference compound], the EC50 came out at 17.7 nM in assay [1]; 0.026 nM in assay [2]; 17.7 nM in assay [3]; 1.38 nM in assay [4]; 1.28 nM in assay [5]; 0.07 nM in assay [6]. The EC50 in assay [7] was 0.032 nM.
